{
  "source": "patent US10098881B2",
  "about": "“Compounds” (AUTIFONY THERAPEUTICS LIMITED, priority 2011, dated 2018)",
  "key": {"Male CD-1 mice": {"test_system": "Male CD-1 mice", "experiment": "Biological Example 2: psychostimulant (amphetamine)-induced hyperactivity in mice", "conditions": "for Locomotor activity (beam crosses): over 60 minutes, mean ± sem"}, "[1]": {"target": "T1, human Kv3.2 channels (hKv3.2) (Homo sapiens, UniProt Q96PR1)", "T1 construct": "expressed in transfected cells", "T1 sequence (Q96PR1 1-638)": "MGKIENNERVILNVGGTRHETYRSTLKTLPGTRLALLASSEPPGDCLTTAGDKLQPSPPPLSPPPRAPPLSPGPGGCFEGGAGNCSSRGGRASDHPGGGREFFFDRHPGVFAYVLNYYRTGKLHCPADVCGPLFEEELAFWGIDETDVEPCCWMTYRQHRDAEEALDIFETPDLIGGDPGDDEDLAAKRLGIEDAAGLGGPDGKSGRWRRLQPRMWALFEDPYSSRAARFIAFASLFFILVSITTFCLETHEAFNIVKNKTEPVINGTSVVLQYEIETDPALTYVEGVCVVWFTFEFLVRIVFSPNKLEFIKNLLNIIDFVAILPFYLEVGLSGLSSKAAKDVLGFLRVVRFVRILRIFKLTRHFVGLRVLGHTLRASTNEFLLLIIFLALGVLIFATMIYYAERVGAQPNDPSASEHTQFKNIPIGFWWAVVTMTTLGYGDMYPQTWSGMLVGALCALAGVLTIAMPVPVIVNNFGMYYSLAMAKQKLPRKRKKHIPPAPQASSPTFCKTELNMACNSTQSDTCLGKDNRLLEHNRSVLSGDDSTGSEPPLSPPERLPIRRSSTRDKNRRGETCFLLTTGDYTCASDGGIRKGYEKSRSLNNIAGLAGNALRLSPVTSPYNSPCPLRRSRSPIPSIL", "experiment": "Biological Example 1: hKv3.2 whole-cell currents, IonWorks Quattro planar array electrophysiology", "format": "cell-based", "conditions": "hKv3.2, -15 mV voltage step", "from_the_text": "The ability of the compounds of the invention to modulate the voltage-gated potassium channel subtypes Kv3.2 or Kv3.1 may be determined using the following assay. Analogous methods may be used to investigate the ability of the compounds of the invention to modulate other channel subtypes, including Kv3.3 and Kv3.4.\nTo assess compound effects on human Kv3.2 channels (hKv3.2), a stable cell line expressing hKv3.2 was created by transfecting Chinese Hamster Ovary (CHO)-K1 cells with a pClH5-hKv3.2 vector. Cells were cultured in DMEM/F12 medium supplemented by 10% Foetal Bovine Serum, lx non-essential amino acids (Invitrogen) and 500 ug/ml of Hygromycin-B (Invitrogen). Cells were grown and maintained at 37° C. in a humidified environment containing 5% CO2 in air.\nThe day of the experiment, cells were removed from the incubator and the culture medium removed. Cells were washed with 5 ml of Dulbecco's PBS (DPBS) calcium and magnesium free and detached by the addition of 3 ml Versene (Invitrogen, Italy) followed by a brief incubation at 37° C. for 5 minutes. The flask was tapped to dislodge cells and 10 ml of DPBS containing calcium and magnesium was added to prepare a cell suspension. The cell suspension was then placed into a 15 ml centrifuge tube and centrifuged for 2 min at 1200 rpm. After centrifugation, the supernatant was removed and the cell pellet re-suspended in 4 ml of DPBS containing calcium and magnesium using a 5 ml pipette to break up the pellet. Cell suspension volume was then corrected to give a cell concentration for the assay of approximately 3 million cells per ml.\nExperiments were conducted at room temperature using IonWorks Quattro™ planar array electrophysiology technology (Molecular Devices Corp.) with PatchPlate™ PPC. Stimulation protocols and data acquisition were carried out using a microcomputer (Dell Pentium 4). Planar electrode hole resistances (Rp) were determined by applying a 10 mV voltage step across each well. These measurements were performed before cell addition. […] Following this, amphotericin-B solution was added to the intracellular face of the electrode to achieve intracellular access. Cells were held at −70 mV. Leak subtraction was conducted in all experiments by applying 50 ms hyperpolarizing (10 mV) prepulses to evoke leak currents followed by a 20 ms period at the holding potential before test pulses. From the holding potential of −70 mV, a first test pulse to −15 mV was applied for 100 ms and following a further 100 ms at −70 mV, a second pulse to 40 mV was applied for 50 ms. Cells were then maintained for a further 100 ms at −100 mV and then a voltage ramp from −100 mV to 40 mV was applied over 200 ms. Test pulses protocol may be performed in the absence (pre-read) and presence (post-read) of the test compound. Pre- and post-reads may be separated by the compound addition followed by a 3 minute incubation.\nThe intracellular solution contained the following (in mM): K-gluconate 100, KCl 54, MgCl2 3.2, HEPES 5, adjusted to pH 7.3 with KOH. Amphotericin-B solution was prepared as […] stock solution in DMSO and diluted to a final working concentration of 0.1 mg/ml in intracellular solution.\nCompounds of the invention (or reference compounds such as N-cyclohexyl-N-[(7,8-dimethyl-2-oxo-1,2-dihydro-3-quinolinyl)methyl]-N′-phenylurea were dissolved in dimethylsulfoxide (DMSO) at a stock concentration of 10 mM. These solutions were further diluted with DMSO using a Biomek FX\nEach dilution (1 μL) was transferred to another compound plate and external solution containing 0.05% pluronic acid (66 μL) was added. 3.5 μL from each plate containing a compound of the invention was added and incubated with the cells during the lonWorks Quattro™ experiment. The final assay dilution was 200 and the final compound concentrations were in the range 50 μM to 50 nM."}, "[2]": {"conditions": "compound 1.6 μM (concentration giving ~0.3 nA current at end of pulse)"}, "[3]": {"conditions": "compound 0.8 μM (concentration giving ~0.3 nA current at end of pulse)"}, "[4]": {"conditions": "compound 0.4 μM (concentration giving ~0.3 nA current at end of pulse)"}, "[5]": {"conditions": "compound 3.1 μM (concentration giving ~0.3 nA current at end of pulse)"}},
  "data": [
    {"smiles": "CC(N)Cc1ccccc1", "note": "(stereo not shown) [Amphetamine, amphetamine, reference compound]", "values": [
      {"measurement": "Locomotor activity (beam crosses)", "setting": "Male CD-1 mice; amphetamine 2.0 mg/kg i.p. alone", "value": "16190 ± 2394", "unit": "beam crosses"},
      {"measurement": "total locomotor activity", "setting": "Male CD-1 mice; amphetamine alone, 2 mg/kg i.p.", "value": "large and significant increase"}
    ]},
    {"smiles": "CN1CCN(C2=Nc3cc(Cl)ccc3Nc3ccccc32)CC1", "note": "[Clozapine, reference compound]", "values": [
      {"measurement": "Locomotor activity (beam crosses)", "setting": "Male CD-1 mice; AMPH 2 mg/kg i.p. + clozapine i.p. 30 min before (positive control), p<0.001 vs amphetamine alone", "value": "1546 ± 420", "unit": "beam crosses"}
    ]},
    {"smiles": "CC[C@@]1(C)NC(=O)N(c2cnc(Oc3ccc(C)c4c3C3(CC3)CO4)nc2)C1=O", "note": "[Example 1, (5R)-5-ethyl-5-methyl-3-[2-(7-methylspiro[2H-benzofuran-3,1′-cyclopropane]-4-yl)oxypyrimidin-5-yl]imidazolidine-2,4-dione]", "values": [
      {"measurement": "Tauact mean", "setting": "[1]; [2]", "value": 21.3, "unit": "ms"}
    ]},
    {"smiles": "CC[C@@]1(C)NC(=O)N(c2cnc(Oc3ccc(C)c4c3C(C)(C)CO4)nc2)C1=O", "note": "[Example 2, (5R)-5-ethyl-5-methyl-3-{2-[(3,3,7-trimethyl-2,3-dihydro-1-benzofuran-4-yl)oxy]-5-pyrimidinyl}-2,4-imidazolidinedione]", "values": [
      {"measurement": "Tauact mean", "setting": "[1]; [2]", "value": 14.8, "unit": "ms"}
    ]},
    {"smiles": "CC[C@@]1(C)NC(=O)N(c2cnc(Oc3ccc(C)c4c3OC(F)(F)O4)nc2)C1=O", "note": "[Example 3, (5R)-3-{2-[(2,2-difluoro-7-methyl-1,3-benzodioxol-4-yl)oxy]-5-pyrimidinyl}-5-ethyl-5-methyl-2,4-imidazolidinedione]", "values": [
      {"measurement": "Tauact mean", "setting": "[1]; compound 25.0 μM (concentration giving ~0.3 nA current at end of pulse)", "value": 8.9, "unit": "ms"}
    ]},
    {"smiles": "CC[C@H]1NC(=O)N(c2cnc(Oc3ccc(C)c4c3C3(CC3)CO4)nc2)C1=O", "note": "[Example 5, (5R)-5-ethyl-3-[2-(7-methylspiro[2H-benzofuran-3,1′-cyclopropane]-4-yl)oxypyrimidin-5-yl]imidazolidine-2,4-dione]", "values": [
      {"measurement": "Tauact mean", "setting": "[1]; [3]", "value": 31.5, "unit": "ms"}
    ]},
    {"smiles": "CC[C@H]1NC(=O)N(c2ccc(Oc3ccc(C)c4c3C3(CC3)CO4)nc2)C1=O", "note": "[Example 6, (5R)-5-ethyl-3-[6-(7-methylspiro[2H-benzofuran-3,1′-cyclopropane]-4-yl)oxy-3-pyridyl]imidazolidine-2,4-dione]", "values": [
      {"measurement": "Tauact mean", "setting": "[1]; [4]", "value": 34.8, "unit": "ms"}
    ]},
    {"smiles": "CC[C@H]1NC(=O)N(c2ccc(Oc3ccc(C)c4c3C(C)(C)CO4)nc2)C1=O", "note": "[Example 7, (5R)-5-ethyl-3-{6-[(3,3,7-trimethyl-2,3-dihydro-1-benzofuran-4-yl)oxy]-3-pyridinyl}-2,4-imidazolidinedione]", "values": [
      {"measurement": "Tauact mean", "setting": "[1]; [4]", "value": 28.0, "unit": "ms"}
    ]},
    {"smiles": "CC[C@H]1NC(=O)N(c2cnc(Oc3ccc(C)c4c3C(C)(C)CO4)nc2)C1=O", "note": "[Example 8, (5R)-5-ethyl-3-{2-[(3,3,7-trimethyl-2,3-dihydro-1-benzofuran-4-yl)oxy]-5-pyrimidinyl}-2,4-imidazolidinedione]", "values": [
      {"measurement": "Tauact mean", "setting": "[1]; [2]", "value": 25.0, "unit": "ms"}
    ]},
    {"smiles": "CC[C@@]1(C)NC(=O)N(c2ccc(Oc3ccc(C)c4c3C3(CC3)CO4)nc2)C1=O", "note": "[Example 9, (5R)-5-ethyl-5-methyl-3-[6-(7-methylspiro[2H-benzofuran-3,1′-cyclopropane]-4-yl)oxy-3-pyridyl]imidazolidine-2,4-dione]", "values": [
      {"measurement": "Tauact mean", "setting": "[1]; [3]", "value": 24.0, "unit": "ms"}
    ]},
    {"smiles": "Cc1ccc(Oc2ccc(N3C(=O)NC(C)(C)C3=O)cn2)c2c1OCC21CC1", "note": "[Example 10, 5,5-dimethyl-3-[6-(7-methylspiro[2H-benzofuran-3,1′-cyclopropane]-4-yl)oxy-3-pyridyl]imidazolidine-2,4-dione]", "values": [
      {"measurement": "Tauact mean", "setting": "[1]; [2]", "value": 17.3, "unit": "ms"}
    ]},
    {"smiles": "CC[C@H]1NC(=O)N(c2ccc(Oc3ccc(C)c(OC)c3)nc2)C1=O", "note": "[RE1, (5R)-5-ethyl-3-(6-{[4-methyl-3-(methyloxy)phenyl]oxy}-3-pyridinyl)-2,4-imidazolidinedione, reference compound]", "values": [
      {"measurement": "Tauact mean", "setting": "[1]; compound 6.25 μM (concentration giving ~0.3 nA current at end of pulse)", "value": 9.9, "unit": "ms"}
    ]},
    {"smiles": "CC[C@@]1(C)NC(=O)N(c2ccc(Oc3ccc(C)c(OC)c3)nc2)C1=O", "note": "[RE2, (5R)-5-ethyl-5-methyl-3-(6-{[4-methyl-3-(methyloxy)phenyl]oxy}-3-pyridinyl)-2,4-imidazolidinedione, reference compound]", "values": [
      {"measurement": "Tauact mean", "setting": "[1]; compound 12.5 μM (concentration giving ~0.3 nA current at end of pulse)", "value": 7.3, "unit": "ms"}
    ]},
    {"smiles": "CC[C@H]1NC(=O)N(c2ccc(Oc3ccc(C#N)cc3C(C)(C)C)nc2)C1=O", "note": "[RE3, 3-(1,1-dimethylethyl)-4-({5-[(4R)-4-ethyl-2,5-dioxo-1-imidazolidinyl]-2-pyridinyl}oxy)benzonitrile, reference compound]", "values": [
      {"measurement": "Tauact mean", "setting": "[1]; compound 0.2 μM (concentration giving ~0.3 nA current at end of pulse)", "value": 23.0, "unit": "ms"}
    ]},
    {"smiles": "CC[C@H]1NC(=O)N(c2ccc(Oc3ccc(C#N)c(C(C)C)c3)nc2)C1=O", "note": "[RE4, 4-({5-[(4R)-4-ethyl-2,5-dioxo-1-imidazolidinyl]-2-pyridinyl}oxy)-2-(1-methylethyl)benzonitrile, reference compound]", "values": [
      {"measurement": "Tauact mean", "setting": "[1]; [3]", "value": 9.2, "unit": "ms"}
    ]},
    {"smiles": "CC[C@H]1NC(=O)N(c2ccc(Oc3ccc(C#N)cc3C3CC3)nc2)C1=O", "note": "[RE5, 3-cyclopropyl-4-({5-[(4R)-4-ethyl-2,5-dioxo-1-imidazolidinyl]-2-pyridinyl}oxy)benzonitrile, reference compound]", "values": [
      {"measurement": "Tauact mean", "setting": "[1]; [5]", "value": 13.0, "unit": "ms"}
    ]},
    {"smiles": "CC[C@H]1NC(=O)N(c2ccc(Oc3ccc(C#N)c(OC(F)(F)F)c3)nc2)C1=O", "note": "[RE7, 4-({5-[(4R)-4-ethyl-2,5-dioxo-1-imidazolidinyl]-2-pyridinyl}oxy)-2-[(trifluoromethyl)oxy]benzonitrile, reference compound]", "values": [
      {"measurement": "Tauact mean", "setting": "[1]; [5]", "value": 10.4, "unit": "ms"}
    ]},
    {"smiles": "CC[C@H]1NC(=O)N(c2ccc(Oc3ccc(C#N)c(OC(C)C)c3)nc2)C1=O", "note": "[RE8, 4-({5-[(4R)-4-ethyl-2,5-dioxo-1-imidazolidinyl]-2-pyridinyl}oxy)-2-[(1-methylethyl)oxy]benzonitrile, reference compound]", "values": [
      {"measurement": "Tauact mean", "setting": "[1]; [5]", "value": 9.7, "unit": "ms"}
    ]}
  ]
}
